Test in all cases: NCI tumour cell line growth inhibition, 48 h
Experiment [1] deals with A498.
The test system of experiment [2] is HOP-62.
Experiment [3] has as its system HOP-92.
Experiment [4] deals with IGROV-1.
The test system of experiment [5] is LOX IMVI.
Experiment [6] deals with MDA-MB-435.
Experiment [7] relates to MOLT-4.
Experiment [8] concerns NCI-H23.
The test system of experiment [9] is NCI/ADR-RES.
Experiment [10] concerns PC-3.
Experiment [11] relates to RPMI-8226.
The subject of experiment [12] is RXF 393.
The subject of experiment [13] is SF-268.
Experiment [14] relates to SF-295.
Experiment [15] concerns SK-MEL-28.
The test system of experiment [16] is SK-OV-3.
For experiment [17], the system named is SN12C.
Experiment [18] relates to SR.
In experiment [19] the test system is TK-10.
The subject of experiment [20] is U-251.

Molecules are shown by their SMILES.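 Cells were grown in 96-well plates and exposed to each compound for 48 hours at five concentrations; endpoints were interpolated linearly between bracketing concentrations, or set to the highest concentration if not reached. Here, GI50 denotes the concentration required for 50% inhibition of growth.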 Activity calls are given as the source filed them. Rule as the data show it: active = GI50 up to about 1.1 µM and inactive = higher.

Take `S=C1N=C2C(=N1)n1c3c(c4ccccc41)CCCC23` (stereo not given): the GI50 in experiment [1] was > 100 µM (inactive); in experiment [2], 46 µM (inactive); in [3], > 100 µM (inactive); in experiment [4], 32.6 µM (inactive); in experiment [5], 14.6 µM (inactive); in experiment [6] it was 55.7 µM (inactive). Moreover, the GI50 was 36.6 µM (inactive) in [7]; 48.3 µM (inactive) in experiment [8]; 62.4 µM (inactive) in [9]; 48.5 µM (inactive) in [10]; 30 µM (inactive) in [11]; > 100 µM (inactive) in experiment [12]. The GI50 was 49 µM (inactive) in experiment [13]; 38.6 µM (inactive) in [14]; > 100 µM (inactive) in experiment [15]; > 100 µM (inactive) in experiment [16]; 29.4 µM (inactive) in experiment [17]; 72.4 µM (inactive) in [18]. The GI50 in experiment [19] was > 100 µM (inactive); in [20], 35 µM (inactive).
Turning to `C=CCNc1nc2c(s1)C(=O)c1ccccc1C2=O`, the GI50 in [1] is 19.5 µM (inactive); in [2], 13.4 µM (inactive); in [3], 9.31 µM (inactive); in [4], 8.73 µM (inactive); in experiment [5], 4.31 µM (inactive); in experiment [6], 1.91 µM (inactive). For the same molecule, the GI50 in experiment [7] is 2.26 µM (inactive); in experiment [8] it was 4.4 µM (inactive); in experiment [9], 15.4 µM (inactive); in experiment [10], 12.6 µM (inactive); in experiment [11], 3.12 µM (inactive); in experiment [12], 18.6 µM (inactive). In addition, the GI50 is 12.4 µM (inactive) in [13]; 14.8 µM (inactive) in experiment [14]; 9.71 µM (inactive) in experiment [15]; 17.9 µM (inactive) in [16]; 11.6 µM (inactive) in experiment [17]; 3.43 µM (inactive) in experiment [18]. The GI50 in experiment [19] was 19.2 µM (inactive); in [20], 7.55 µM (inactive).
For `N#C[C@H](C(=O)c1ccccc1F)c1nc2ccccc2[nH]1`, the GI50 in experiment [1] is 87.9 µM (inactive); in experiment [2], > 100 µM (inactive); in [3], > 100 µM (inactive); in experiment [4], 60.7 µM (inactive); in experiment [5], > 100 µM (inactive); in [6], > 100 µM (inactive). The GI50 in experiment [7], in experiment [8], in [9], in [10], in [11] and in experiment [12] was > 100 µM (inactive) throughout. Besides, the GI50 in experiment [13] was > 100 µM (inactive); in experiment [14], > 100 µM (inactive); in experiment [15], > 100 µM (inactive); in [16], > 100 µM (inactive); in [17], > 100 µM (inactive); in experiment [18], 58.9 µM (inactive). Further, the GI50 in experiment [19] and in experiment [20] was > 100 µM (inactive) in each case.
Regarding `Cc1cc2c(cc1C)C(=O)c1ncccc1C2=O`, the GI50 in experiment [1] is 50.2 µM (inactive); in [2], 71.3 µM (inactive); in experiment [3], 58.6 µM (inactive); in experiment [4] it was 31.2 µM (inactive); in experiment [5], 29.4 µM (inactive); in experiment [6], 16.8 µM (inactive). In addition, the GI50 in experiment [7] is 20.4 µM (inactive); in experiment [8], 15.6 µM (inactive); in experiment [9], 22.8 µM (inactive); in experiment [10], 29 µM (inactive); in experiment [11] it was 29.9 µM (inactive); in [12] it was 33.2 µM (inactive). For the same molecule, the GI50 is 49.3 µM (inactive) in [13]; 41.8 µM (inactive) in [14]; 50.5 µM (inactive) in experiment [15]; 87.9 µM (inactive) in experiment [16]; 22.6 µM (inactive) in experiment [17]; < 0.01 µM (active) in experiment [18]. The GI50 was > 100 µM (inactive) in experiment [19] and 35.7 µM (inactive) in [20].
`CCN(CC)CCNC(=O)c1cc2cc(NC(=O)c3cc4cc([N+](=O)[O-])ccc4[nH]3)ccc2[nH]1`: the GI50 in experiment [1] was 27 µM (inactive); in [2] it was > 77.1 µM (inactive); in experiment [3] it was 11 µM (inactive); in [4] it was 18.1 µM (inactive); in [5] it was 3.86 µM (inactive); in experiment [6] it was 37.5 µM (inactive). The GI50 in [7] is 13 µM (inactive); in [8], 8.49 µM (inactive); in experiment [9], > 100 µM (inactive); in experiment [10], > 39 µM (inactive); in experiment [11], 1.82 µM (inactive); in [12] it was > 43.9 µM (inactive). Also, the GI50 in experiment [13] is 13.6 µM (inactive); in experiment [14] it was 27.6 µM (inactive); in experiment [15] it was 25.2 µM (inactive); in experiment [16], 25.9 µM (inactive); in experiment [17], > 65.2 µM (inactive); in [18], 7.29 µM (inactive). The GI50 was 14.2 µM (inactive) in [19] and 1.84 µM (inactive) in experiment [20].
Turning to `Nc1c2c(nc3ccccc13)-c1ccccc1CCC2`, the GI50 in experiment [1] is 8.22 µM (inactive); in experiment [2] it was 10.2 µM (inactive); in experiment [3], 9.12 µM (inactive); in experiment [4], 14.1 µM (inactive); in experiment [5] it was 12.7 µM (inactive); in [6] it was 13.5 µM (inactive). The GI50 is 8.34 µM (inactive) in [7]; 15.7 µM (inactive) in [8]; 14.2 µM (inactive) in experiment [9]; 15.1 µM (inactive) in experiment [10]; 8.67 µM (inactive) in [11]; 11.2 µM (inactive) in experiment [12]. Besides, the GI50 in experiment [13] was 17.6 µM (inactive); in experiment [14], 5.98 µM (inactive); in experiment [15], 12.7 µM (inactive); in [16] it was 15.2 µM (inactive); in experiment [17], 16.3 µM (inactive); in experiment [18] it was 2.39 µM (inactive). The GI50 was 10.7 µM (inactive) in [19] and 15 µM (inactive) in experiment [20].
For `CCOC(CCNCC(OCC)OCC)OCC`, the GI50 in [1], in [2], in experiment [3], in [4], in experiment [5] and in experiment [6] was > 10 µM (inactive) each time. Also, the GI50 in [7], in experiment [8], in [9], in experiment [10], in experiment [11] and in experiment [12] was > 10 µM (inactive) in each case. Moreover, the GI50 in [13], in experiment [14], in experiment [15], in experiment [16], in [17] and in [18] was > 10 µM (inactive) in each case. The GI50 in experiment [19] and in experiment [20] was > 10 µM (inactive) in each case.

The record behind these values is ChEMBL document CHEMBL1201862, “PubChem BioAssay data set” (2004).
